Experimental data: the supplement of paper PMC10307832

Tests used:
Assay in all cases: relative viability (nuclei count vs DMSO), 5 days (fraction); higher = more cells survive
FG-4592 + Bortezomib = compound: Cc1nc(C(=O)NCC(=O)O)c(O)c2ccc(Oc3ccccc3)cc12 [FG-4592] + CC(C)C[C@H](NC(=O)[C@H](Cc1ccccc1)NC(=O)c1cnccn1)B(O)O [Bortezomib] (partner 0.002 µM)
In short: (§1)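 Medians of duplicate plates are given as relative viability. That measure is the nuclei count in treated wells divided by the count in vehicle wells. Counts were taken on 4× images of lung cancer cell lines in 1536-well plates, 5 days after pin-tool dosing the day after seeding with one drug alone or a fixed anchor-drug dose plus five library-drug doses (not always all listed) in √10 steps.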

IU1-47 + Bortezomib = compound: CC1=CC(=C(N1C2=CC=C(C=C2)Cl)C)C(=O)CN3CCCCC3 [IU1-47] + CC(C)C[C@H](NC(=O)[C@H](Cc1ccccc1)NC(=O)c1cnccn1)B(O)O [Bortezomib] (partner 0.002 µM)
In short: as §1

IU1-47 + Crizotinib = compound: CC1=CC(=C(N1C2=CC=C(C=C2)Cl)C)C(=O)CN3CCCCC3 [IU1-47] + C[C@@H](Oc1cc(-c2cnn(C3CCNCC3)c2)cnc1N)c1c(Cl)ccc(F)c1Cl [Crizotinib] (partner 1 µM)
In short: as §1

FG-4592 + AZD7762 = compound: Cc1nc(C(=O)NCC(=O)O)c(O)c2ccc(Oc3ccccc3)cc12 [FG-4592] + NC(=O)Nc1cc(-c2cccc(F)c2)sc1C(=O)N[C@H]1CCCNC1 [AZD7762] (partner 0.2 µM)
In short: as §1

NCI-H441
relative viability (FG-4592 + Bortezomib; first compound 0.08 µM): 0.272 | relative viability (FG-4592 + Bortezomib; first compound 0.253 µM): 0.647 | relative viability (FG-4592 + Bortezomib; first compound 0.8 µM): 0.356 | relative viability (FG-4592 + Bortezomib; first compound 2.53 µM): 0.44 | relative viability (FG-4592 + Bortezomib; first compound 8 µM): 0.367 | relative viability (IU1-47 + Bortezomib; first compound 0.08 µM): 0.732 | relative viability (IU1-47 + Bortezomib; first compound 0.253 µM): 0.574 | relative viability (IU1-47 + Bortezomib; first compound 0.8 µM): 0.489 | relative viability (IU1-47 + Bortezomib; first compound 2.53 µM): 0.561 | relative viability (IU1-47 + Bortezomib; first compound 8 µM): 0.56 | relative viability (IU1-47 + Crizotinib; first compound 0.08 µM): 0.778 | relative viability (IU1-47 + Crizotinib; first compound 0.253 µM): 0.887 | relative viability (IU1-47 + Crizotinib; first compound 0.8 µM): 0.813 | relative viability (IU1-47 + Crizotinib; first compound 2.53 µM): 0.889 | relative viability (IU1-47 + Crizotinib; first compound 8 µM): 0.775 | relative viability (FG-4592 + AZD7762; first compound 0.08 µM): 1.26 | relative viability (FG-4592 + AZD7762; first compound 0.253 µM): 0.852 | relative viability (FG-4592 + AZD7762; first compound 0.8 µM): 1.46 | relative viability (FG-4592 + AZD7762; first compound 2.53 µM): 1 | relative viability (FG-4592 + AZD7762; first compound 8 µM): 0.978

NCI-H1703
relative viability (FG-4592 + Bortezomib; first compound 0.08 µM): 0.334 | relative viability (FG-4592 + Bortezomib; first compound 0.253 µM): 0.327 | relative viability (FG-4592 + Bortezomib; first compound 0.8 µM): 0.355 | relative viability (FG-4592 + Bortezomib; first compound 2.53 µM): 0.186 | relative viability (FG-4592 + Bortezomib; first compound 8 µM): 0.274 | relative viability (IU1-47 + Bortezomib; first compound 0.08 µM): 0.278 | relative viability (IU1-47 + Bortezomib; first compound 0.253 µM): 0.354 | relative viability (IU1-47 + Bortezomib; first compound 0.8 µM): 0.273 | relative viability (IU1-47 + Bortezomib; first compound 2.53 µM): 0.403 | relative viability (IU1-47 + Bortezomib; first compound 8 µM): 0.504 | relative viability (IU1-47 + Crizotinib; first compound 0.08 µM): 0.524 | relative viability (IU1-47 + Crizotinib; first compound 0.253 µM): 0.917 | relative viability (IU1-47 + Crizotinib; first compound 0.8 µM): 0.426 | relative viability (IU1-47 + Crizotinib; first compound 2.53 µM): 1.15 | relative viability (IU1-47 + Crizotinib; first compound 8 µM): 1.11 | relative viability (FG-4592 + AZD7762; first compound 0.08 µM): 0.138 | relative viability (FG-4592 + AZD7762; first compound 0.253 µM): 0.135 | relative viability (FG-4592 + AZD7762; first compound 0.8 µM): 0.12 | relative viability (FG-4592 + AZD7762; first compound 8 µM): 0.126

NCI-H1792
relative viability (FG-4592 + Bortezomib; first compound 0.08 µM): 0.985 | relative viability (FG-4592 + Bortezomib; first compound 0.253 µM): 0.753 | relative viability (FG-4592 + Bortezomib; first compound 0.8 µM): 0.998 | relative viability (FG-4592 + Bortezomib; first compound 2.53 µM): 0.883 | relative viability (FG-4592 + Bortezomib; first compound 8 µM): 0.923 | relative viability (IU1-47 + Bortezomib; first compound 0.08 µM): 1.03 | relative viability (IU1-47 + Bortezomib; first compound 0.253 µM): 1.07 | relative viability (IU1-47 + Bortezomib; first compound 0.8 µM): 1.1 | relative viability (IU1-47 + Bortezomib; first compound 2.53 µM): 0.879 | relative viability (IU1-47 + Bortezomib; first compound 8 µM): 0.662 | relative viability (IU1-47 + Crizotinib; first compound 0.08 µM): 0.993 | relative viability (IU1-47 + Crizotinib; first compound 0.253 µM): 1.03 | relative viability (IU1-47 + Crizotinib; first compound 0.8 µM): 1.07 | relative viability (IU1-47 + Crizotinib; first compound 2.53 µM): 1.02 | relative viability (IU1-47 + Crizotinib; first compound 8 µM): 0.522 | relative viability (FG-4592 + AZD7762; first compound 0.08 µM): 0.81 | relative viability (FG-4592 + AZD7762; first compound 0.253 µM): 0.637 | relative viability (FG-4592 + AZD7762; first compound 2.53 µM): 0.834 | relative viability (FG-4592 + AZD7762; first compound 8 µM): 0.654

Calu-6
relative viability (FG-4592 + Bortezomib; first compound 0.08 µM): 0.98 | relative viability (FG-4592 + Bortezomib; first compound 0.253 µM): 0.854 | relative viability (FG-4592 + Bortezomib; first compound 0.8 µM): 0.938 | relative viability (FG-4592 + Bortezomib; first compound 2.53 µM): 1.1 | relative viability (FG-4592 + Bortezomib; first compound 8 µM): 0.926 | relative viability (IU1-47 + Bortezomib; first compound 0.08 µM): 1.2 | relative viability (IU1-47 + Bortezomib; first compound 0.253 µM): 1.02 | relative viability (IU1-47 + Bortezomib; first compound 0.8 µM): 0.957 | relative viability (IU1-47 + Bortezomib; first compound 2.53 µM): 0.96 | relative viability (IU1-47 + Bortezomib; first compound 8 µM): 0.998 | relative viability (IU1-47 + Crizotinib; first compound 0.08 µM): 0.838 | relative viability (IU1-47 + Crizotinib; first compound 0.253 µM): 0.829 | relative viability (IU1-47 + Crizotinib; first compound 0.8 µM): 0.692 | relative viability (IU1-47 + Crizotinib; first compound 2.53 µM): 1.02 | relative viability (IU1-47 + Crizotinib; first compound 8 µM): 0.665

SK-LU-1
relative viability (FG-4592 + Bortezomib; first compound 0.253 µM): 0.849 | relative viability (FG-4592 + Bortezomib; first compound 0.8 µM): 0.825 | relative viability (FG-4592 + Bortezomib; first compound 2.53 µM): 1.31 | relative viability (FG-4592 + Bortezomib; first compound 8 µM): 0.978 | relative viability (IU1-47 + Bortezomib; first compound 0.08 µM): 1.22 | relative viability (IU1-47 + Bortezomib; first compound 0.253 µM): 1.2 | relative viability (IU1-47 + Bortezomib; first compound 0.8 µM): 1.4 | relative viability (IU1-47 + Bortezomib; first compound 2.53 µM): 1.03 | relative viability (IU1-47 + Bortezomib; first compound 8 µM): 1.05 | relative viability (IU1-47 + Crizotinib; first compound 0.08 µM): 0.975 | relative viability (IU1-47 + Crizotinib; first compound 0.253 µM): 0.912 | relative viability (IU1-47 + Crizotinib; first compound 0.8 µM): 0.963 | relative viability (IU1-47 + Crizotinib; first compound 2.53 µM): 0.996 | relative viability (IU1-47 + Crizotinib; first compound 8 µM): 0.814

PC-3 [JPC-3]
relative viability (FG-4592 + Bortezomib; first compound 0.08 µM): 0.824 | relative viability (FG-4592 + Bortezomib; first compound 0.253 µM): 0.745 | relative viability (FG-4592 + Bortezomib; first compound 0.8 µM): 0.872 | relative viability (FG-4592 + Bortezomib; first compound 2.53 µM): 0.884 | relative viability (FG-4592 + Bortezomib; first compound 8 µM): 0.832 | relative viability (IU1-47 + Bortezomib; first compound 0.08 µM): 0.909 | relative viability (IU1-47 + Bortezomib; first compound 0.253 µM): 0.805 | relative viability (IU1-47 + Bortezomib; first compound 0.8 µM): 0.841 | relative viability (IU1-47 + Bortezomib; first compound 8 µM): 0.885 | relative viability (IU1-47 + Crizotinib; first compound 0.08 µM): 1.08 | relative viability (IU1-47 + Crizotinib; first compound 0.253 µM): 0.975 | relative viability (IU1-47 + Crizotinib; first compound 0.8 µM): 1.08 | relative viability (IU1-47 + Crizotinib; first compound 8 µM): 0.962 | relative viability (FG-4592 + AZD7762; first compound 0.08 µM): 0.802 | relative viability (FG-4592 + AZD7762; first compound 0.253 µM): 0.762 | relative viability (FG-4592 + AZD7762; first compound 2.53 µM): 0.726 | relative viability (FG-4592 + AZD7762; first compound 8 µM): 0.8

EMC-BAC-2
relative viability (FG-4592 + Bortezomib; first compound 0.08 µM): 1.04 | relative viability (FG-4592 + Bortezomib; first compound 0.253 µM): 1.04 | relative viability (FG-4592 + Bortezomib; first compound 0.8 µM): 0.934 | relative viability (FG-4592 + Bortezomib; first compound 2.53 µM): 1.02 | relative viability (FG-4592 + Bortezomib; first compound 8 µM): 1 | relative viability (IU1-47 + Bortezomib; first compound 0.08 µM): 1.09 | relative viability (IU1-47 + Bortezomib; first compound 0.253 µM): 1.07 | relative viability (IU1-47 + Bortezomib; first compound 0.8 µM): 1.04 | relative viability (IU1-47 + Bortezomib; first compound 2.53 µM): 1.15 | relative viability (IU1-47 + Bortezomib; first compound 8 µM): 1.04 | relative viability (IU1-47 + Crizotinib; first compound 0.08 µM): 0.802 | relative viability (IU1-47 + Crizotinib; first compound 0.253 µM): 0.863 | relative viability (IU1-47 + Crizotinib; first compound 0.8 µM): 0.752 | relative viability (IU1-47 + Crizotinib; first compound 2.53 µM): 0.835 | relative viability (IU1-47 + Crizotinib; first compound 8 µM): 0.75 | relative viability (FG-4592 + AZD7762; first compound 0.08 µM): 1.17 | relative viability (FG-4592 + AZD7762; first compound 0.253 µM): 0.903 | relative viability (FG-4592 + AZD7762; first compound 0.8 µM): 0.901 | relative viability (FG-4592 + AZD7762; first compound 2.53 µM): 1.08 | relative viability (FG-4592 + AZD7762; first compound 8 µM): 1

LK-2
relative viability (IU1-47 + Crizotinib; first compound 0.08 µM): 0.204 | relative viability (IU1-47 + Crizotinib; first compound 0.253 µM): 0.223 | relative viability (IU1-47 + Crizotinib; first compound 0.8 µM): 0.223 | relative viability (IU1-47 + Crizotinib; first compound 2.53 µM): 0.213 | relative viability (IU1-47 + Crizotinib; first compound 8 µM): 0.255 | relative viability (FG-4592 + AZD7762; first compound 0.08 µM): 0.273 | relative viability (FG-4592 + AZD7762; first compound 0.253 µM): 0.355 | relative viability (FG-4592 + AZD7762; first compound 2.53 µM): 0.358 | relative viability (FG-4592 + AZD7762; first compound 8 µM): 0.342

NCI-H2126
relative viability (FG-4592 + Bortezomib; first compound 0.08 µM): 1.09 | relative viability (FG-4592 + Bortezomib; first compound 0.253 µM): 1.1 | relative viability (FG-4592 + Bortezomib; first compound 0.8 µM): 1.12 | relative viability (FG-4592 + Bortezomib; first compound 2.53 µM): 1.12 | relative viability (FG-4592 + Bortezomib; first compound 8 µM): 1.13 | relative viability (IU1-47 + Bortezomib; first compound 0.08 µM): 1.17 | relative viability (IU1-47 + Bortezomib; first compound 0.253 µM): 1.18 | relative viability (IU1-47 + Bortezomib; first compound 0.8 µM): 1.19 | relative viability (IU1-47 + Bortezomib; first compound 2.53 µM): 0.894 | relative viability (IU1-47 + Bortezomib; first compound 8 µM): 1.04 | relative viability (IU1-47 + Crizotinib; first compound 0.08 µM): 1.08 | relative viability (IU1-47 + Crizotinib; first compound 0.253 µM): 1.08 | relative viability (IU1-47 + Crizotinib; first compound 0.8 µM): 1.03 | relative viability (IU1-47 + Crizotinib; first compound 2.53 µM): 0.813 | relative viability (IU1-47 + Crizotinib; first compound 8 µM): 0.972 | relative viability (FG-4592 + AZD7762; first compound 0.08 µM): 1.04 | relative viability (FG-4592 + AZD7762; first compound 0.253 µM): 0.951 | relative viability (FG-4592 + AZD7762; first compound 0.8 µM): 0.918 | relative viability (FG-4592 + AZD7762; first compound 2.53 µM): 1.06 | relative viability (FG-4592 + AZD7762; first compound 8 µM): 1.01
